# Reference: paper PMC7516017, “Organoids to Study Intestinal Nutrient Transport, Drug Uptake and Metabolism – Update to the Human Model and Expansion of Applications” (Frontiers in Bioengineering and Biotechnology, 2020)
# Where two headings read alike, the source gives them in different places.
# Tests used:
# Pept1 [1] = biological target: T1, Pept1 (Mus musculus, UniProt Q9JIP7); assay: Competition assay using radiolabeled Gly-Sar, murine small intestinal organoids (wild type and Pept1 knockout); format: in vitro ADME; conditions: 13mM cyclic hexapeptide (solubilized in DMSO) versus 5mM Gly-Sar (14C tracer 1mM); organoids from wild type and Pept1-deficient mice; HEPES-saline buffer pH 6.5, 37 °C; liquid scintillation; n = 5–6; Figure 2G
# T1 construct: endogenous in cells; host or cells: murine small intestinal organoids (C57BL/6 wild type; Pept1-/- organoids as control)
# T1 sequence (Q9JIP7 1-709): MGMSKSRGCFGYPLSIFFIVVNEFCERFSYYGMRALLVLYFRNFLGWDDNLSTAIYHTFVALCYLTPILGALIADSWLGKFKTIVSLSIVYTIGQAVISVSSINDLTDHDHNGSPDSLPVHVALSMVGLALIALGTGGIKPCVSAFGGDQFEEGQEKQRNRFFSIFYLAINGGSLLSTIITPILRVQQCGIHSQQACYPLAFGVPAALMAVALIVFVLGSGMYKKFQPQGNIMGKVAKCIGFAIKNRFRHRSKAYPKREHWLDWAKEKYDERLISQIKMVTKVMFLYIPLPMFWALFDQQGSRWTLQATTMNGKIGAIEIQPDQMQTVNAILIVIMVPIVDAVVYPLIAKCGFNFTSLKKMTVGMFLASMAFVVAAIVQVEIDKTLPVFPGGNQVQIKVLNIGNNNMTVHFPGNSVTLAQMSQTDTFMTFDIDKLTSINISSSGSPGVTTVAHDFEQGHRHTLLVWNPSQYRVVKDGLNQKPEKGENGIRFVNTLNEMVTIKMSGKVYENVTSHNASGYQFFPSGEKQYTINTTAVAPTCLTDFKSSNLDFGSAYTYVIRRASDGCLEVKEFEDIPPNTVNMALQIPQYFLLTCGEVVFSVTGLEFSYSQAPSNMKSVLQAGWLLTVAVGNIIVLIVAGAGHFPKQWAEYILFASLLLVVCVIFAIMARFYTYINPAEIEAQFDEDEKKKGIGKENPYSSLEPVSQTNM
# Procedure: (§1) Intestinal organoids – Transport & Metabolism […]
# (§2) addition of fructose. Following incubation, substrate/inhibitor solutions were removed from intact […]
# (§3) centrifuged (300g, 10min). For “broken up” organoids, dissociated organoids were centrifuged (300g, 3min) and washed three times with PBS. During these steps, PBS for washing contained glucose and […]
# (§4) 3 ml of Bioscint® Scintillation […]
# (§5) organoids was quantified using a liquid scintillation counter (PerkinElmer). Residual amounts of all […]
# in dissolved organoids derived from the ileum.
# (§6) 1.7. Peptide and drug transport studies
# The protocol for peptide and
# (American Radiolabeled Chemicals). Final substrate concentrations used were: 5mM Gly-Sar […]
# Weinmüller and Horst Kessler, and solubilized in DMSO. Peptide transporter studies were performed […]
# (§7) 1.8. Imaging of intracellular acidification
# (§8) 100µM Amilorid, and 50µM S1611 (Sanofi Aventis). Image series were captured using a Leica […]
# (§9) Calculations and imaging data […]
# (§10) intestinal Wt organoids or in human duodenal organoids.
# PEPT1 [2] = biological target: T2, PEPT1 (Homo sapiens, UniProt P46059); assay: Competition assay using radiolabeled Gly-Sar, human duodenal organoids; conditions: HEPES-saline buffer pH 6.5, 37 °C, liquid scintillation, n = 5–6
# T2 sequence (P46059 1-708): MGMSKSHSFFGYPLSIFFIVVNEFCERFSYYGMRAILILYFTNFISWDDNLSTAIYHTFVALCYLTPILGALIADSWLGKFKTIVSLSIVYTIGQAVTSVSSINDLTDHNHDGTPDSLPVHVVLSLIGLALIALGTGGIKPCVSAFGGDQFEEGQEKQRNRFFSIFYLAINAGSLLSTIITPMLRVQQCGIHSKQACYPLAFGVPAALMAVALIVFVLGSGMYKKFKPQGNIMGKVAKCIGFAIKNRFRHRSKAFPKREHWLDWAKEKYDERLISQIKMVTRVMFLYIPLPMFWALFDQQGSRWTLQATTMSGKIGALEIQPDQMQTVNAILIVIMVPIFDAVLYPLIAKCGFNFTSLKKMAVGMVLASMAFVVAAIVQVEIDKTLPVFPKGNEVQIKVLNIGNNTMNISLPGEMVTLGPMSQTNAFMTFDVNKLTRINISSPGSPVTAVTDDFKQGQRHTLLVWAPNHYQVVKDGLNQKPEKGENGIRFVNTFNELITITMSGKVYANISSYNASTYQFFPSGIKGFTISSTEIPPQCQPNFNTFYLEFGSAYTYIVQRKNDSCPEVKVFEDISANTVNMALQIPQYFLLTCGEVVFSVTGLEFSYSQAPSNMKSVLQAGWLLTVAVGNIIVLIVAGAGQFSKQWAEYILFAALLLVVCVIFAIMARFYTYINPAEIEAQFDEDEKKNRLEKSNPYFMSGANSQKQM
# Procedure: Intestinal organoids – Transport & Metabolism fructose uptake assay. Inhibitors were added 10min prior to addition of glucose and 30min prior to addition of fructose. Following incubation, substrate/inhibitor solutions were removed from intact organoids embedded in matrigel and matrigel droplets were washed three times with PBS.
# Subsequently, matrigel was dissolved by addition of cold PBS and organoids were resuspended and centrifuged (300g, 10min). For “broken up” organoids, dissociated organoids were centrifuged (300g, 3min) and washed three times with PBS. During these steps, PBS for washing contained glucose and fructose, respectively, to avoid excessive transport of substrates out of the cells. Organoid pellets were resuspended in a lysis buffer containing 150mM NaCl, 50 mM Tris-HCl, 1% Igepal CA-630, 0.5% DCA and a protease inhibitor mix, and incubated for 20min on ice. 3 ml of Bioscint® Scintillation solution (National Diagnostics) were added to the cell lysate and radiolabeled substrate taken up by organoids was quantified using a liquid scintillation counter (PerkinElmer). […]
# 1.7. […]
# Transport activity was assessed by competitive inhibition of the uptake of radiolabeled dipeptide glycyl-sarcosin (Gly-Sar), a hydrolysis-resistant model substrate of Pept1. […]
# were assessed using (non-labeled) substrates (Gly-Sar) and 14C-radiolabeled substrate tracers (American Radiolabeled Chemicals). […]
# Caco-2 = conditions: cited from earlier work
# Source text: (§11) As mentioned before, peptide transporters also play a role in drug uptake, including peptidomimetics. […] For example, peptidomimetics have been designed for cancer therapy, e.g., to induce apoptosis ([Walensky et al., 2004]), sensitize cancer cells to chemotherapeu ...
# human duodenal organoids [3] = assay: Live-cell imaging of intracellular acidification (BCECF-AM), human organoids; format: cell-based; conditions: 40µM CCCP; for intracellular acidification: BCECF-AM 1μM, ratio F(λex490nm)/F(λex450nm), 50mM Gly-Sar, 50mM Gly-Gly, 5mM Cefadroxil, 50mM glucose, 50mM fructose as negative controls, minimum 6 experiments, representative courses
# Procedure: as §6
# For peptide and drug transport studies, human organoids were cultivated for 7-9 days after passaging. […]
# as §7
# For live-cell imaging of intracellular acidification, organoids were incubated with 1μM BCECF-AM (Life Technologies) in HEPES-saline buffer containing 0.01% pluronic F127, 375μM eserine and 2mM […]
# substances used were: 50mM Gly-Sar, 50mM Gly-Gly, 5mM Cefadroxil, 40µM CCCP (Sigma), 100µM Amilorid, and 50µM S1611 (Sanofi Aventis). Image series were captured using a Leica […]
# and the fluorescence ratio F(λex490nm)/ F(λex450nm) was calculated. Calculations and imaging data analyses were performed using the Leica Application Suite Advanced Fluorescence software. All imaging experiments were performed minimum 6 times and representative time courses are depicted in the manuscript. Imaging of intracellular acidification was performed as indicated in murine small intestinal Wt organoids or in human duodenal organoids.
# [4] = humans; ref Becker et al., 2015; cited from earlier work
# Source text: as §11
# [5] = test system: sodium-proton exchangers (NHEs); assay: Live-cell imaging of intracellular pH after Gly-Sar with NHE inhibitors; format: cell-based, mouse; conditions: BCECF-AM, murine small intestinal organoids, 50mM Gly-Sar, 100µM Amilorid or 50µM S1611
# Procedure: as §1, §2
# centrifuged (300g, 10min). For “broken up” organoids, dissociated organoids were centrifuged (300g, 3min) and washed three times with PBS. […]
# as §7, §8, §9, §10
# human duodenal organoids [6] = assay: Uptake of radiolabeled fructose with inhibitors/competitor; format: cell-based; conditions: 14C-fructose, 2.1mM D-fructose; 1mM Phloretin or Rubusoside or 2.1mM D-glucose as competitor; inhibitors added 30min prior; dissolved (broken up) organoids, 45 min 37 °C, pH 7.4; liquid scintillation; n = 5–6
# Procedure: (§12) Subsequently, medium was changed to CCM for 5 days. […]
# (§13) 1.6. Glucose and Fructose transport studies
# (§14) Grenoble, France) and transferred in tubes. After repeated (2x) centrifugation (200g, 5min) and […]
# indicated substrate/inhibitor for 45 min at 37 °C. Transporter ac tivities were assessed using (non- […]
# (§15) from Sigma) and 1mM Rubusoside (VWR, Avantor).
# as §1, §2, §3, §4, §5
# (§16) in dissolved organoids derived from the ileum. […]
# as §9, §10
# [7] = test system: human organoids derived from different regions of the small intestine; assay: Uptake of radiolabeled glucose with transporter inhibitors; format: cell-based; conditions: 14C-glucose, 5.8mM D-glucose; 1mM inhibitor added 10min prior; intact organoids in matrigel, HEPES-saline buffer pH 7.4, 30 min 37 °C; liquid scintillation; n = 5–6; Figure 2B
# Procedure: as §12, §13, §14
# Transporter ac tivities were assessed using (non- […]
# as §15, §1, §2, §3, §4, §5, §16, §9, §10
compound,measurement,setting,value
C[C@@H]1NC(=O)[C@H](C)NC(=O)[C@@H](C)N(C)C(=O)[C@H](C)N(C)C(=O)[C@H](C)NC(=O)[C@H](C)NC1=O [P3],peptide transporter-mediated uptake judged by competitive inhibition of radiolabeled Gly-Sar uptake,Pept1 [1],no signs of peptide transporter-mediated uptake
same,competitive inhibition of radiolabeled Gly-Sar uptake,"PEPT1 [2]; 13mM cyclic hexapeptide (solubilized in DMSO) versus 5mM Gly-Sar (14C tracer 1mM), human duodenal organoids, Figure 2H",significantly reduce radiolabeled Gly-Sar uptake
same,permeability in Caco-2 assay,"Caco-2; library of N-methylated alanine peptides, ref Ovadia et al., 2011",highly permeable
C[C@@H]1NC(=O)[C@H](CC(=O)O)NC(=O)CNC(=O)[C@H](CCCNC(=N)N)NC(=O)[C@@H](C)N(C)C(=O)[C@H](C)N(C)C1=O [P2],peptide transporter-mediated uptake judged by competitive inhibition of radiolabeled Gly-Sar uptake,Pept1 [1],actively transported independently of Pept1
same,permeability in Caco-2 assay,"Caco-2; ref Weinmuller et al., 2017",lacked permeability
carbonyl cyanide m-chlorophenyl hydrazine [CCCP],intracellular acidification,human duodenal organoids [3],intracellular acidification was demonstrated
same,"intracellular pH on stimulation subsequent to Gly-Sar, Gly-Gly and cefadroxil","human duodenal organoids [3]; BCECF-AM, human duodenal organoids, Supplementary Figure 3A",additional decline in intracellular pH
Cilengitide,half-life of excretion,[4],4 h
same,metabolic stability,[4],completely stable
CC1=C(C(=O)O)N2C(=O)[C@@H](NC(=O)[C@H](N)c3ccc(O)cc3)[C@H]2SC1 [cefadroxil],intracellular acidification,human duodenal organoids [3],intracellular acidification was demonstrated
glycyl-glycine [Gly-Gly],competitive inhibition of radiolabeled Gly-Sar uptake,"PEPT1 [2]; 5mM Gly-Gly versus 5mM Gly-Sar (14C tracer 1mM), intact and broken up human duodenal organoids",significant reduction of Gly-Sar uptake in both approaches
same,intracellular acidification,human duodenal organoids [3],intracellular acidification was demonstrated
N=C(N)NC(=O)c1nc(Cl)c(N)nc1N [Amiloride],recovery of intracellular pH following exposure to Gly-Sar,[5],prevented the recovery of intracellular pH to basal levels
same,course of intracellular pH in the observed time span after Gly-Sar,"[5]; Figures 3G,H",continuous influx of protons
O=C(CCc1ccc(O)cc1)c1c(O)cc(O)cc1O [phloretin],effect on fructose transport,human duodenal organoids [6],diminished
same,effect on glucose uptake,[7],"blunted glucose uptake, which was more pronounced"
O=C(CCc1ccc(O)cc1)c1c(O)cc(O)cc1O[C@@H]1O[C@H](CO)[C@@H](O)[C@H](O)[C@H]1O [phloridzin],effect on glucose uptake,[7],blunted glucose uptake
"O=C(CO)[C@@H](O)[C@H](O)[C@H](O)CO [fructose, D-fructose]",intracellular acidification,human duodenal organoids [3],neither glucose nor fructose (used as negative controls) led to an intracellular acidification
OC[C@H]1OC(O)[C@H](O)[C@@H](O)[C@@H]1O (stereo partly drawn) [glucose],effect on fructose transport,human duodenal organoids [6],diminished
same,intracellular acidification,human duodenal organoids [3],neither glucose nor fructose (used as negative controls) led to an intracellular acidification
glycyl-sarcosin [Gly-Sar],intracellular acidification,human duodenal organoids [3],intracellular acidification was demonstrated
